From EP0193189A1, “Novel compound, its production and insecticidal and acaricidal composition containing it as an active ingredient” (SUMITOMO CHEMICAL COMPANY, LIMITED, priority 1985, dated 1986)
In brackets after ≈: the same amount, converted by molar mass.

Tested on: resistant strain of green rice leafhopper (Nephotetix cincticeps)
Test: Test Example 3: rice seedling dip test, resistant green rice leafhopper
Assay type: in vivo
Settings: Nephotettix cincticeps, 24 h, rice seedlings dipped 1 minute; adults of resistant strain; after one day; read-out: LC50 value (ppm)
Experimental: The emulsifiable concentrates of the following present compounds and control compounds obtained according to Formulation example 2 were each diluted with water to a prescribed concentration, and rice seedlings (about 12 cm in length) were dipped for 1 minute in the resulting aqueous dilute solutions. After air-drying, the seedlings were placed in test tube, and 10 adults of a resistant strain of green rice leafhopper (Nephotetix cincticeps) were liberated in the tube. After one day, the dead and alive of the adults were examined to obtain LC50 (50% lethal concentration)(two replications).

SMILES	LC50
C=CC(C)(CCCc1ccc(F)c(Oc2ccccc2)c1)c1ccc(OCC)cc1 (centres unmarked) [(2)]	80 µg/mL (≈ 198 µM)
C#CC(C)(CCCc1ccc(F)c(Oc2ccccc2)c1)c1ccc(OC)cc1 (centres unmarked) [(5)]	56 µg/mL (≈ 144 µM)
C#CC(C)(CCCc1ccc(F)c(Oc2ccccc2)c1)c1ccc2c(c1)OCO2 (centres unmarked) [(12)]	63 µg/mL (≈ 157 µM)
C#CC(C)(CCCc1cccc(Oc2ccccc2)c1)c1ccc(OCC)c(Cl)c1 (centres unmarked) [(16)]	15 µg/mL (≈ 35.8 µM)
C#CC(C)(CCCc1ccc(F)c(Oc2ccccc2)c1)c1ccc(Cl)c(Cl)c1 (centres unmarked) [(36)]	64 µg/mL (≈ 150 µM)
C#CC(C)(CCCc1ccc(F)c(Oc2ccccc2)c1)c1ccc(OCC=C)cc1 (centres unmarked) [(8)]	54 µg/mL (≈ 130 µM)
C#CC(C)(CCCc1ccc(F)c(Oc2ccccc2)c1)c1ccc(OCC=C)c(Cl)c1 (centres unmarked) [(40)]	46 µg/mL (≈ 102 µM)
C#CC(C)(CCCc1ccc(F)c(Oc2ccc(F)cc2)c1)c1ccc(OCC)cc1 (centres unmarked) [(38)]	1.9 µg/mL (≈ 4.52 µM)
C#CC(C)(CCCc1ccc(F)c(Oc2ccccc2)c1)c1ccc(C(F)(F)F)cc1 (centres unmarked) [(13)]	10 µg/mL (≈ 23.4 µM)
C#CC(C)(CCCc1cccc(Sc2ccccc2)c1)c1ccc(OCC)cc1 (centres unmarked) [(22)]	90 µg/mL (≈ 225 µM)
C#CC(C)(CCCc1cccc(Oc2ccccc2)c1)c1ccc(F)cc1 (centres unmarked) [(35)]	93 µg/mL (≈ 259 µM)
C#CC(C)(CCCc1cccc(Oc2ccc(F)cc2)c1)c1ccc(OCC)cc1 (centres unmarked) [(15)]	3.6 µg/mL (≈ 8.94 µM)
C#CC(C)(CCCc1cccc(Oc2ccccc2)c1)c1ccc(OC)cc1 (centres unmarked) [(24)]	27 µg/mL (≈ 72.9 µM)
C#CC(C)(CCCc1ccc(F)c(Cc2ccccc2)c1)c1ccc(OCC)cc1 (centres unmarked) [(30)]	28 µg/mL (≈ 69.9 µM)
C#CC(C)(CCCc1cccc(Oc2ccccc2)c1)c1ccc(Cl)cc1 (centres unmarked) [(25)]	61 µg/mL (≈ 163 µM)
C#CC(C)(CCCc1ccc(F)c(Oc2ccccc2)c1)c1ccc(OC(F)F)c(Cl)c1 (centres unmarked) [(27)]	31 µg/mL (≈ 67.6 µM)

Tested on: carmine spider mite (Tetranychus cinnabarinus)
Test: Test Example 8: carmine spider mite on potted kidney bean, degree of damage
Assay type: in vivo
Set-up: key: -: No damage is observed.; +: Slight damage is observed.; ++: The same damage as in the untreated plot is observed
Settings: 500 ppm spray 10 ml/pot plus 2 ml soil treatment; after 8 days
Experimental: The female adults of carmine spider mite (Tetranychus cinnabarinus) were put at a rate of 10 adults/leaf on the leaves of potted kidney bean (at the primordial leaf stage) which had elapsed 7 days after sowing, and placed in a constant-temperature room kept at 25°C. After 6 days, the 200-fold aqueous dilute solutions (corresponding to 500 ppm), prepared from the emulsifiable concentrates of the following present compounds and control compounds prepared according to Formulation example 2, were each sprayed at a rate of 10 ml/pot on a turn table. At the same time, the soil in the pot was treated with 2 ml of each aqueous solution. After 8 days, the degree of damage of the plant by the mite was examined.
Criteria of the effect: • - : No damage is observed. • + : Slight damage is observed. • ++: The same damage as in the untreated plot is observed.

SMILES	Degree of damage
C#CC(C)(CCCc1ccc(F)c(Oc2ccccc2)c1)c1ccc(C(F)(F)F)cc1 (centres unmarked) [(13)]	-

Tested on: houseflies (Musca domestica) of WHO strains
Test: Test Example 6: housefly filter paper and sucrose bait test
Assay type: in vivo
Settings: 0.7 ml on filter paper with sucrose bait, adult females, after 48 hours, read-out: LC50 value (ppm)
Experimental: On the bottom of a polyethylene cup of 5.5 cm- in diameter was placed a piece of filter paper of the same size as the bottom, and 0.7 ml of a test solution, prepared by diluting the emulsifiable concentrates of the following present compounds and control compounds prepared according to Formulation example 2 to a prescribed concentration with water, was added dropwise to the filter paper. Thirty milligrams of sucrose were uniformly placed on the filter paper as bait. Thereafter, 10 adult female houseflies (Musca domestica) of WHO strains were liberated in the cup, which was then covered with a lid. After 48 hours, the dead and alive were examined to obtain LC50 value (50% lethal concentration) (two replications).

SMILES	LC50
C#CC(C)(CCCc1ccc(F)c(Oc2ccccc2)c1)c1ccc(OC)cc1 (centres unmarked) [(5)]	13 µg/mL (≈ 33.5 µM)
C#CC(C)(CCCc1ccc(F)c(Oc2ccccc2)c1)c1ccc2c(c1)OCO2 (centres unmarked) [(12)]	13 µg/mL (≈ 32.3 µM)
C#CC(C)(CCCc1ccc(F)c(Oc2ccc(F)cc2)c1)c1ccc(OCC)cc1 (centres unmarked) [(38)]	14 µg/mL (≈ 33.3 µM)
C#CC(C)(CCCc1ccc(F)c(Oc2ccccc2)c1)c1ccc(OC(F)F)c(Cl)c1 (centres unmarked) [(27)]	11 µg/mL (≈ 24 µM)

Tested on: common mosquito (Culex pipiens pallens)
Test: Test Example 1: common mosquito larvae in diluted emulsifiable concentrate, mortality and emergence inhibition
Assay type: in vivo
Settings: Culex pipiens, 24 h; 3.5 ppm; 20 last instar larvae; after one day; read-out: Mortality
Experimental: The emulsifiable concentrates of the following present compounds obtained according to Formulation example 2 were each diluted with water so as to obtain respective aqueous solutions containing 3.5 ppm of said compounds, respectively. One hundred ml of thus diluted aqueous solutions were poured into respective polyethylene cups of 180 ml volume, and 20 of the last instar larvae of common mosquito (Culex pipiens pallens) were liberated thereto. After one day, the dead or alive of the larvae were examined.
Thereafter, the feed was added to respective cups and the number of emerged pupae of the respective cups was counted when all the pupae of no treatment group had emerged to calculate the inhibitory ratios of the emergence.
The mortality and the inhibitory ratio of the emergence are shown according to the following three criteria: • mortality: A; 90% or more, • B; less than 90% to 10%, • C; less than 10%. • inhibitory: A; 90% or more, ratio of • emergence B; less than 90% to 80% • C; less than 80%.

SMILES	mortality at 3.5 ppm
C=CC(C)(CCCc1ccc(F)c(Oc2ccccc2)c1)c1ccc(OCC)cc1 (centres unmarked) [(2)]	> 90%
C#CC(C)(CCCc1ccc(F)c(Oc2ccccc2)c1)c1ccc(OC)cc1 (centres unmarked) [(5)]	> 90%
C#CC(C)(CCCc1ccc(F)c(Oc2ccccc2)c1)c1ccc2c(c1)OCO2 (centres unmarked) [(12)]	> 90%
C#CC(C)(CCCc1cccc(Oc2ccccc2)c1)c1ccc(OCC)c(Cl)c1 (centres unmarked) [(16)]	10 to 90%
C#CC(C)(CCCc1ccc(F)c(Oc2ccccc2)c1)c1ccc(Cl)c(Cl)c1 (centres unmarked) [(36)]	10 to 90%
C#CC(C)(CCCc1ccc(F)c(Oc2ccccc2)c1)c1ccc(OCC=C)cc1 (centres unmarked) [(8)]	> 90%
C#CC(C)(CCCc1ccc(F)c(Oc2ccccc2)c1)c1ccc(OCC=C)c(Cl)c1 (centres unmarked) [(40)]	10 to 90%
C#CC(C)(CCCc1ccc(F)c(Oc2ccc(F)cc2)c1)c1ccc(OCC)cc1 (centres unmarked) [(38)]	> 90%
C#CC(C)(CCCc1ccc(F)c(Oc2ccccc2)c1)c1ccc(C(F)(F)F)cc1 (centres unmarked) [(13)]	> 90%
C#CC(C)(CCCc1cccc(Sc2ccccc2)c1)c1ccc(OCC)cc1 (centres unmarked) [(22)]	10 to 90%
C#CC(C)(CCCc1cccc(Oc2ccccc2)c1)c1ccc(F)cc1 (centres unmarked) [(35)]	> 90%
C#CC(C)(CCCc1cccc(Oc2ccc(F)cc2)c1)c1ccc(OCC)cc1 (centres unmarked) [(15)]	> 90%
C#CC(C)(CCCc1cccc(Oc2ccccc2)c1)c1ccc(OC)cc1 (centres unmarked) [(24)]	10 to 90%
C#CC(C)(CCCc1ccc(F)c(Cc2ccccc2)c1)c1ccc(OCC)cc1 (centres unmarked) [(30)]	> 90%
C#CC(C)(CCCc1cccc(Oc2ccccc2)c1)c1ccc(Cl)cc1 (centres unmarked) [(25)]	> 90%
C#CC(C)(CCCc1ccc(F)c(Oc2ccccc2)c1)c1ccc(OC(F)F)c(Cl)c1 (centres unmarked) [(27)]	10 to 90%

Same assay, conditions: Culex pipiens; 3.5 ppm; counted when all pupae of no treatment group had emerged; read-out: Inhibitory ratio of emergence

SMILES	pest or weed control at 3.5 ppm
C=CC(C)(CCCc1ccc(F)c(Oc2ccccc2)c1)c1ccc(OCC)cc1 (centres unmarked) [(2)]	> 90%
C#CC(C)(CCCc1ccc(F)c(Oc2ccccc2)c1)c1ccc(OC)cc1 (centres unmarked) [(5)]	> 90%
C#CC(C)(CCCc1ccc(F)c(Oc2ccccc2)c1)c1ccc2c(c1)OCO2 (centres unmarked) [(12)]	> 90%
C#CC(C)(CCCc1cccc(Oc2ccccc2)c1)c1ccc(OCC)c(Cl)c1 (centres unmarked) [(16)]	> 90%
C#CC(C)(CCCc1ccc(F)c(Oc2ccccc2)c1)c1ccc(Cl)c(Cl)c1 (centres unmarked) [(36)]	> 90%
C#CC(C)(CCCc1ccc(F)c(Oc2ccccc2)c1)c1ccc(OCC=C)cc1 (centres unmarked) [(8)]	> 90%
C#CC(C)(CCCc1ccc(F)c(Oc2ccccc2)c1)c1ccc(OCC=C)c(Cl)c1 (centres unmarked) [(40)]	> 90%
C#CC(C)(CCCc1ccc(F)c(Oc2ccc(F)cc2)c1)c1ccc(OCC)cc1 (centres unmarked) [(38)]	> 90%
C#CC(C)(CCCc1ccc(F)c(Oc2ccccc2)c1)c1ccc(C(F)(F)F)cc1 (centres unmarked) [(13)]	> 90%
C#CC(C)(CCCc1cccc(Sc2ccccc2)c1)c1ccc(OCC)cc1 (centres unmarked) [(22)]	> 90%
C#CC(C)(CCCc1cccc(Oc2ccccc2)c1)c1ccc(F)cc1 (centres unmarked) [(35)]	> 90%
C#CC(C)(CCCc1cccc(Oc2ccc(F)cc2)c1)c1ccc(OCC)cc1 (centres unmarked) [(15)]	> 90%
C#CC(C)(CCCc1cccc(Oc2ccccc2)c1)c1ccc(OC)cc1 (centres unmarked) [(24)]	> 90%
C#CC(C)(CCCc1ccc(F)c(Cc2ccccc2)c1)c1ccc(OCC)cc1 (centres unmarked) [(30)]	> 90%
C#CC(C)(CCCc1cccc(Oc2ccccc2)c1)c1ccc(Cl)cc1 (centres unmarked) [(25)]	> 90%
C#CC(C)(CCCc1ccc(F)c(Oc2ccccc2)c1)c1ccc(OC(F)F)c(Cl)c1 (centres unmarked) [(27)]	> 90%

Tested on: tobacco cutworms (Spodoptera litura)
Test: Test Example 2: tobacco cutworm larvae on treated artificial feed
Assay type: in vivo
Settings: Spodoptera litura, 144 h; 150 ppm solution, 2 ml in 13 g artificial feed; 4th instar larvae; six days after; read-out: Mortality (%)
From the text: The emulsifiable concentrates of the following present compounds obtained according to Formulation example 2 were each diluted with water to obtain respective 667 times dilution aqueous solutions (corresponding to 150 ppm) containing said compounds, respectively. Two ml of thus diluted solutions were impregnated into the artificial feeds (13 g) for tobacco cutworms (Spodoptera litura) and thus prepared feeds were placed in polyethylene cups of 11 cm in diameter, respectively. Ten of the 4th instar larvae were liberated thereon.
Six days after, the dead and alive of the larvae were examined to calculate the mortality (two replications).

SMILES	mortality at 150 ppm
C=CC(C)(CCCc1ccc(F)c(Oc2ccccc2)c1)c1ccc(OCC)cc1 (centres unmarked) [(2)]	100%
C#CC(C)(CCCc1ccc(F)c(Oc2ccccc2)c1)c1ccc(OC)cc1 (centres unmarked) [(5)]	100%
C#CC(C)(CCCc1ccc(F)c(Oc2ccccc2)c1)c1ccc2c(c1)OCO2 (centres unmarked) [(12)]	100%
C#CC(C)(CCCc1cccc(Oc2ccccc2)c1)c1ccc(OCC)c(Cl)c1 (centres unmarked) [(16)]	100%
C#CC(C)(CCCc1ccc(F)c(Oc2ccccc2)c1)c1ccc(OCC=C)cc1 (centres unmarked) [(8)]	100%
C#CC(C)(CCCc1ccc(F)c(Oc2ccc(F)cc2)c1)c1ccc(OCC)cc1 (centres unmarked) [(38)]	100%
C#CC(C)(CCCc1ccc(F)c(Oc2ccccc2)c1)c1ccc(C(F)(F)F)cc1 (centres unmarked) [(13)]	100%
C#CC(C)(CCCc1cccc(Sc2ccccc2)c1)c1ccc(OCC)cc1 (centres unmarked) [(22)]	100%
C#CC(C)(CCCc1cccc(Oc2ccccc2)c1)c1ccc(F)cc1 (centres unmarked) [(35)]	100%
C#CC(C)(CCCc1cccc(Oc2ccc(F)cc2)c1)c1ccc(OCC)cc1 (centres unmarked) [(15)]	100%
C#CC(C)(CCCc1cccc(Oc2ccccc2)c1)c1ccc(OC)cc1 (centres unmarked) [(24)]	100%
C#CC(C)(CCCc1ccc(F)c(Cc2ccccc2)c1)c1ccc(OCC)cc1 (centres unmarked) [(30)]	100%
C#CC(C)(CCCc1cccc(Oc2ccccc2)c1)c1ccc(Cl)cc1 (centres unmarked) [(25)]	100%

Tested on: brown rice planthoppers (Nila^parvata luqens)
Test: Test Example 7: spray on potted rice plants, brown rice planthopper, residual effect
Assay type: in vivo
Settings: 20 h; 100 ppm spray, 20 ml/2 pots; residual effect; twenty hours after liberation; read-out: Mortality (%) liberated 4 days after application
Experimental: The emulsifiable concentrates of the following compounds and control compounds obtained according to Formulation example 2 were each diluted with water one thousand times (corresponding to 100 ppm) and each of thus prepared solutions was sprayed at the rate of 20 ml/2 pots to the rice plant seedlings planted in Wagner pots having a surface area of one ten thousandth are. After air-drying, the treated plants were covered with the iron wire cages, and about 15 adults of brown rice planthoppers (Nila^parvata luqens) were liberated thereto. Further, about 15 adults thereof were also liberated thereto 4 days after the application to examine the residual effects. Twenty hours after each liberation, the dead and alive adults were examined to calculate the mortality.

SMILES	mortality at 100 ppm
C=CC(C)(CCCc1ccc(F)c(Oc2ccccc2)c1)c1ccc(OCC)cc1 (centres unmarked) [(2)]	100%

Same assay, conditions: 20 h; 100 ppm spray, 20 ml/2 pots; twenty hours after liberation; read-out: Mortality (%) liberated just after air-drying

SMILES	mortality at 100 ppm
C=CC(C)(CCCc1ccc(F)c(Oc2ccccc2)c1)c1ccc(OCC)cc1 (centres unmarked) [(2)]	100%
